Measurements published in US8207345B2, “Tetrahydroquinolines for use as modulators of the mitotic motor protein Eg5” (Merck Patent GmbH, priority 2005, dated 2012).

Test system: cells
Assay: cell cycle effect (G2/M), appended experiments
Assay type: cell-based

SMILES: N=C(N)c1ccc(OCCCCCOc2ccc(C(=N)N)cc2)cc1 [pentamidine]
- maintain cells in the G2/M cell cycle: maintain cells in the G2/M cell cycle
